Test results reported in paper PMC9585581, “Developing Photoaffinity Probes for Dopamine Receptor D2 to Determine Targets of Parkinson’s Disease Drugs” (ACS Chemical Neuroscience, 2022).

System: DRD2-expressing 293T cells vs untransduced 293T cells
Assay: Flow cytometry quantification of probe labeling of cells
Assay type: cell-based, human
Conditions: probe 100 nm, photo-cross-linked, Alexa Fluor 555 azide; P < 0.0001, two-way ANOVA
Procedure: Flow cytometry was used to quantify the number of cells that were successfully labeled by probes 5 and 7 as these were the most promising biochemically and seemed to display the highest propensity for labeling DRD2-expressing cells. To perform the quantification, our 293T cell line-expressing DRD2 or unmodified 293T cells as a negative control were treated with probes at a 100 nm concentration, the lower concentration than the EC50 determination, likely due in large part to the covalent nature of the binding event versus the noncovalent EC50 assays. The probes were covalently cross-linked to the cells with UV, and the unbound probe was washed out. The azide-containing fluorescent dye was then clicked onto the probe, the unbound dye was washed out, and the cells were analyzed by flow cytometry (Figure 5a). […]
Figure 5 Flow cytometry quantification of probe labeling. […] The cells were then analyzed by flow cytometry. P values determined using two-way ANOVA in GraphPad; **** corresponds to P < 0.0001. […]
HEK293T cells and a stable HEK293T-derived cell line-expressing DRD2-Strep Tag II fusion were maintained in DMEM supplemented with 10% FBS, 100 U/mL penicillin, and 100 μg/mL streptomycin in a humidified atmosphere at 37 °C in 5% CO2. […] The cells were then washed 3 times with PBS with 5% BSA and analyzed with a BD Accuri C6 flow cytometer. […]

| SMILES | labeling of cells expressing DRD2 vs cells that do not (flow cytometry) |
| --- | --- |
| C#CCOc1ccc(C(=O)c2ccc(CN[C@H]3CCc4nc(N)sc4C3)cc2)cc1 [Compound 7, (S)-(4-(((2-Amino-4,5,6,7-tetrahydrobenzo[d]thiazol-6-yl)amino)methyl)phenyl)(4-(prop-2-yn-1-yloxy)phenyl)methanone] | highly statistically significant increase in the labeling of cells expressing DRD2 over those that do not |
| C#CCOc1ccc(C(=O)c2ccc(CNCCc3cccc4c3CC(=O)N4)cc2)cc1 [Compound 5, 4-(2-((4-(4-(Prop-2-yn-1-yloxy)benzoyl)benzyl)amino)ethyl)indolin-2-one] | highly statistically significant increase in the labeling of cells expressing DRD2 over those that do not |
